Experiment [1] has as its target T1, Polyadenylate-binding protein 1 (Homo sapiens, UniProt P11940). Description: PABP1 MLLE–PAM2 interaction inhibitors, dose response, miRNA deadenylation inhibitor project, biochemical, fluorescence polarization, Cy5-PAM2 peptide, secondary (AID 602260). Format: functional. As to conditions: read-out: IC50_Mean.
The target in experiment [2] is T1, Polyadenylate-binding protein 1. Description: PABP1 MLLE–PAM2 binding inhibitor potency, dose response, biochemical, fluorescence polarization, FITC-PAM2 peptide (AID 602259). It is filed as functional. As to conditions: read-out: IC50_Mean.
For experiment [3], the target named is Small ubiquitin-related modifier 1 (Homo sapiens, UniProt P63165). Nature of the experiment: inhibitors of SUMO1 peptide binding, dose response, biochemical, fluorescence polarization, uHTS hits (AID 624382). As to conditions: read-out: IC50_Mean. It is filed as functional.
Small ubiquitin-related modifier 1, sequence (P63165 whole entry): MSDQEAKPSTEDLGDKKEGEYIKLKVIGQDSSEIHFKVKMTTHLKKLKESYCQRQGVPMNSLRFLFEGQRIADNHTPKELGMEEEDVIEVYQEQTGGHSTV
The target of experiment [4] is T2, Histone-lysine N-methyltransferase NSD2 (Homo sapiens, UniProt O96028).
T2 sequence (O96028 whole entry): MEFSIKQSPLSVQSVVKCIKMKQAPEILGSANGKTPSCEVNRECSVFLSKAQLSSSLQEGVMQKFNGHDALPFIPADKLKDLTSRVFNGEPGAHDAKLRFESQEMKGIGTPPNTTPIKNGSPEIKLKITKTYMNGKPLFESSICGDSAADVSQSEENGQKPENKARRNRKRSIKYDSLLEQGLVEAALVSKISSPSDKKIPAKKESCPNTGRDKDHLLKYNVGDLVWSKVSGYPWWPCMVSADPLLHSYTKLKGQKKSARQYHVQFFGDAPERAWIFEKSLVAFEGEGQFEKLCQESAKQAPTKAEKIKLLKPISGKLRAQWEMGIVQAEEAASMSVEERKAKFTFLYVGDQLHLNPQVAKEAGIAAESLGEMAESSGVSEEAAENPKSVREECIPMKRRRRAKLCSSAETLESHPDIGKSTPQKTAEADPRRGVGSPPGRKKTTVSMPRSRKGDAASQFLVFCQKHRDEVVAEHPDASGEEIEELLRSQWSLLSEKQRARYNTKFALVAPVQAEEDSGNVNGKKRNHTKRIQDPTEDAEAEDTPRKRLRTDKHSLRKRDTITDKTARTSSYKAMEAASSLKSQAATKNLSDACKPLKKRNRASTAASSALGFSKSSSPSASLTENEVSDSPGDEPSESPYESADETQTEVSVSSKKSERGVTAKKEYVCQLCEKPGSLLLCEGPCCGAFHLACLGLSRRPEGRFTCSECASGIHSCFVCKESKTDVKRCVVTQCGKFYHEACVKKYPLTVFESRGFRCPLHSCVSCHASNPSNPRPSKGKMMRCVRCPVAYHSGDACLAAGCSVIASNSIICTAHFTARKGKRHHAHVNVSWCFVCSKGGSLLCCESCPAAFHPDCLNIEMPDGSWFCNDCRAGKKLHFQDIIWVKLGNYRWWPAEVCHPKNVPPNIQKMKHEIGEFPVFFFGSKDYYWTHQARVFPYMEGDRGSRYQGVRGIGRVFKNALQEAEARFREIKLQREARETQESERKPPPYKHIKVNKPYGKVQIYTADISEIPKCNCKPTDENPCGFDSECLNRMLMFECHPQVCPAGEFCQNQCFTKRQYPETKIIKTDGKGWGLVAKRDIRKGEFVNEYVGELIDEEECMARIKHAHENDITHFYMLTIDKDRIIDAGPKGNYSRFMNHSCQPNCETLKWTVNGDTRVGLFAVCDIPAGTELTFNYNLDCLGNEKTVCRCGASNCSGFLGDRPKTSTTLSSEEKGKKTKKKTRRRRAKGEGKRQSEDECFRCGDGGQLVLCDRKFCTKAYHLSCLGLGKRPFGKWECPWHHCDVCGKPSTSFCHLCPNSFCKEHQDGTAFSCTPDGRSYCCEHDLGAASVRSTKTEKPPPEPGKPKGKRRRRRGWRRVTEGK
It is filed as biochemical.

The target of experiment [5] is Caspase-7 (Homo sapiens, UniProt P55210). Nature of the experiment: human caspase-7 inhibitors, dose response, selectivity assay for caspase-6 inhibitor project, biochemical, DEVD-R110 fluorescence, cherry-pick (AID 743295). It is filed as […].
Caspase-7, sequence (P55210 24-198 limits assumed): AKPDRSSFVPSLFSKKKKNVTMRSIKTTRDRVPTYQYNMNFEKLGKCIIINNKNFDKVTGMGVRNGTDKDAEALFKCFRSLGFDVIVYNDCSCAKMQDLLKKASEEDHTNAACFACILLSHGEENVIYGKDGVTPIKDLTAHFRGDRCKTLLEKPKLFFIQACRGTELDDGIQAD
Caspase-7, sequence (P55210 207-303 limits assumed): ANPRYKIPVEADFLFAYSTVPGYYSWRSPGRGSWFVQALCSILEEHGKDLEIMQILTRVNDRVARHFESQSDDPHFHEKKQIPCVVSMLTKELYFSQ
Experiment [6] in a line: inhibitors of intracellular T. cruzi replication, confirmation, NIH3T3 host cells, beta-gal luminescence (AID 2044).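 Also: intracellular parasites grown in NIH/3T3 mouse fibroblasts as host cells; luminescent beta-galactosidase reporter signal from transgenic T. cruzi replicating inside host cells; inhibitors lower the luminescence signal.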 Format: functional, cell-based.
Experiment [7] concerns the target Kappa-type opioid receptor (Homo sapiens, UniProt P41145). Format: functional.
Experiment [8] concerns CHO. Nature of the experiment: cytotoxicity in TLR9-MyD88 CHO cells, dose response, cytotoxicity control for TLR9-MyD88 binding inhibitor project, cell-based, luminescence (AID 588339).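 Also: CHO cells stably coexpressing TLR9 and MyD88 fusions from primary screen; compound exposure lasted 48 hours before viability readout.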 Format: functional, hamster. As to conditions: Cricetulus griseus.
Experiment [9] addresses T3, Replicative DNA helicase DnaB (Mycobacterium tuberculosis, UniProt P9WMR3).
T3 sequence (P9WMR3 whole entry): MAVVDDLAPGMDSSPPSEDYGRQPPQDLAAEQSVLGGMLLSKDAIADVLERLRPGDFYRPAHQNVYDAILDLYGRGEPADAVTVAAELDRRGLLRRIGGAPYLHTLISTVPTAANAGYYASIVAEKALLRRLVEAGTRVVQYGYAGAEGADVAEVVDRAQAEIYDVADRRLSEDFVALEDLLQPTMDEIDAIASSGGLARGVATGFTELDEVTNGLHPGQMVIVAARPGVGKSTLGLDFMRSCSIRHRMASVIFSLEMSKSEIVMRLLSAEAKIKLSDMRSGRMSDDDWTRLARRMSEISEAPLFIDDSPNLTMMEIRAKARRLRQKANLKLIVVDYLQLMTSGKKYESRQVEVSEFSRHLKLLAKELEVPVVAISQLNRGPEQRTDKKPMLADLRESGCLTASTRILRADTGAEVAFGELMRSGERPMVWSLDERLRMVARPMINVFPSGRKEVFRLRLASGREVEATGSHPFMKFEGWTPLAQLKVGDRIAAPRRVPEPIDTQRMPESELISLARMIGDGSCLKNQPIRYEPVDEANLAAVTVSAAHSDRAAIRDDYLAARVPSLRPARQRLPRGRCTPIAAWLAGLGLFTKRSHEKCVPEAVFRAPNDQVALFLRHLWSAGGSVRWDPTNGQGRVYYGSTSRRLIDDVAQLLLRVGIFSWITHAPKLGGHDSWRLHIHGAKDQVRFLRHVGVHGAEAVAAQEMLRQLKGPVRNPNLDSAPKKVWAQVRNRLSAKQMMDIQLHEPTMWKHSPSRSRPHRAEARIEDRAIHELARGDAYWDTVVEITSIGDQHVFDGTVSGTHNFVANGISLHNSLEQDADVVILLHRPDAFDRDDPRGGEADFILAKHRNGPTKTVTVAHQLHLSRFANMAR
Description: DnaB intein splicing inhibitors, dose response, biochemical, cell-free fluorescence (AID 449749). It is filed as functional.

Experiment [10] addresses Beta Lactamase (Pseudomonas aeruginosa, UniProt Q932Y6). Description: beta-lactamase reporter inhibitor potency, dose response, artefact control for TLR9-MyD88 binding inhibitor project, BLA reporter cells, FRET fluorescence (AID 588341).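 Also: cell based assay in CHO-K1 cells stably expressing beta-lactamase.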 Format: cell-based.
The target of experiment [11] is Fatty acid synthase (Homo sapiens, UniProt P49327). Description: FAS thioesterase domain inhibitors, dose response, biochemical, endpoint fluorescence intensity, uHTS hits (AID 624327).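 Also: fluorescence from hydrolysis of an O-methyl fluorescein acyl ester substrate by the enzyme.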 It is filed as functional.
Fatty acid synthase, sequence (P49327 whole entry, the tested form may be a part): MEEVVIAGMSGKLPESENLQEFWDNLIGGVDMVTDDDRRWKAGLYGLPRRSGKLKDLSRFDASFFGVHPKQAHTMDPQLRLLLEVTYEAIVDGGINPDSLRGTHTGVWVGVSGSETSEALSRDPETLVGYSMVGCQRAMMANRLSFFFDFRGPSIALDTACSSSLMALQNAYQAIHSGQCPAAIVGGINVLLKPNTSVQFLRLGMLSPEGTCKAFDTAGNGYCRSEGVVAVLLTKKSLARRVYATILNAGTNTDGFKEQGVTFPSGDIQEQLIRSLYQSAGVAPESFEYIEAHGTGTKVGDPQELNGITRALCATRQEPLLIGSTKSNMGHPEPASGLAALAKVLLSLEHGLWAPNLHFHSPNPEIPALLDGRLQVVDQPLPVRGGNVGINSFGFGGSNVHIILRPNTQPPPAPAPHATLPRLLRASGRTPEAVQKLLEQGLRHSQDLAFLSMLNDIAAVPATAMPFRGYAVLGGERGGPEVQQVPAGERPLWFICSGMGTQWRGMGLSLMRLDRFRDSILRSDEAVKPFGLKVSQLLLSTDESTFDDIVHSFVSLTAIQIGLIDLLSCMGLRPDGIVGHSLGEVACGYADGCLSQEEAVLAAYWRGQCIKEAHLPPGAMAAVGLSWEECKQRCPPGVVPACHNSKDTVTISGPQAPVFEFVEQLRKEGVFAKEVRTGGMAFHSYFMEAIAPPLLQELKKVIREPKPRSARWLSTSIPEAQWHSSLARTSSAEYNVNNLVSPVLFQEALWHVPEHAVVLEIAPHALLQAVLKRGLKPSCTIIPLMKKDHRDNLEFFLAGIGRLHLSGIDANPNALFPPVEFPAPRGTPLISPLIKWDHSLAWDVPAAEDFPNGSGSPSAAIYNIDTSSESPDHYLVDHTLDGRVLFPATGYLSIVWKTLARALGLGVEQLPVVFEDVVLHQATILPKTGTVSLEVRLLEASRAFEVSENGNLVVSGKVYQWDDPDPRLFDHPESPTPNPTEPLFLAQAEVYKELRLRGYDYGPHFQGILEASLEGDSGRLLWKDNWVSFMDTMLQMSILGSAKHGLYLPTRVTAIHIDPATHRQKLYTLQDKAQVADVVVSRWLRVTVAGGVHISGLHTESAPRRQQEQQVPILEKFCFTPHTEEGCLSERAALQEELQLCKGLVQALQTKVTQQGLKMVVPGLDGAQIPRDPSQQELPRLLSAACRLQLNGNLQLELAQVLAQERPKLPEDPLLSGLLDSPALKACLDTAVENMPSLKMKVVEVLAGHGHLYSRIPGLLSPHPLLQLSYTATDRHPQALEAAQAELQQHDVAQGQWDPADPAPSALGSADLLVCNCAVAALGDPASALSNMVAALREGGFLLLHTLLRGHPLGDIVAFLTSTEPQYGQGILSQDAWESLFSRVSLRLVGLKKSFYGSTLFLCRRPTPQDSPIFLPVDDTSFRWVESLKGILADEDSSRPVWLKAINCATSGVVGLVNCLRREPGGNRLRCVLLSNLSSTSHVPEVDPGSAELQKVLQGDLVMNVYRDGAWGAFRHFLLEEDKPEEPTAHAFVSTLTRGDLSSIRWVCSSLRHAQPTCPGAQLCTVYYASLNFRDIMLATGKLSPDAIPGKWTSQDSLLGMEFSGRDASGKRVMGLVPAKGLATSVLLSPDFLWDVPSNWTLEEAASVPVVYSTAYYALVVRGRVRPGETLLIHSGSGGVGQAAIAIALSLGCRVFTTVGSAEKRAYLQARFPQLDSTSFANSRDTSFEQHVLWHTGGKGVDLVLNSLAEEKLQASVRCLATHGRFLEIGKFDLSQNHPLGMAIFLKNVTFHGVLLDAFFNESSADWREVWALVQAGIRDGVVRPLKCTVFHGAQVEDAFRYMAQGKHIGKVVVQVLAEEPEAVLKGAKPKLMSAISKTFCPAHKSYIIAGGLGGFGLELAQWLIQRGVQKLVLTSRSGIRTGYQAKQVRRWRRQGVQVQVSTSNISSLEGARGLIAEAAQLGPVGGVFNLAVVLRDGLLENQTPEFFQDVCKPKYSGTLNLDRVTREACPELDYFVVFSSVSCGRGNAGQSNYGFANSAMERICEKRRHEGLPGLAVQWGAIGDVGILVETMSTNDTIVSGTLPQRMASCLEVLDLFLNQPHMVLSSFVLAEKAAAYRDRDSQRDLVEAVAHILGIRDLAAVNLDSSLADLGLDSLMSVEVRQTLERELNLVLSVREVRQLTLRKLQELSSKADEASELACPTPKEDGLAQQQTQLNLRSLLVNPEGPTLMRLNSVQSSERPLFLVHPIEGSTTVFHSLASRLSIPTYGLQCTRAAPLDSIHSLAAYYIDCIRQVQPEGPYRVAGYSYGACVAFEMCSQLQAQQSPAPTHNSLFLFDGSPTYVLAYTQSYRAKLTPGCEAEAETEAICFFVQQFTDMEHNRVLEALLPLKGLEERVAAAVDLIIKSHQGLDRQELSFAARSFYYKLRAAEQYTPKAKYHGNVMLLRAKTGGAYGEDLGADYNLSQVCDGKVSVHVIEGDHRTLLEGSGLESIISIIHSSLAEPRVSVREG

Each structure is given as a SMILES string. Calls of active or inactive are those of the source.

T1 sequence (P11940 whole entry): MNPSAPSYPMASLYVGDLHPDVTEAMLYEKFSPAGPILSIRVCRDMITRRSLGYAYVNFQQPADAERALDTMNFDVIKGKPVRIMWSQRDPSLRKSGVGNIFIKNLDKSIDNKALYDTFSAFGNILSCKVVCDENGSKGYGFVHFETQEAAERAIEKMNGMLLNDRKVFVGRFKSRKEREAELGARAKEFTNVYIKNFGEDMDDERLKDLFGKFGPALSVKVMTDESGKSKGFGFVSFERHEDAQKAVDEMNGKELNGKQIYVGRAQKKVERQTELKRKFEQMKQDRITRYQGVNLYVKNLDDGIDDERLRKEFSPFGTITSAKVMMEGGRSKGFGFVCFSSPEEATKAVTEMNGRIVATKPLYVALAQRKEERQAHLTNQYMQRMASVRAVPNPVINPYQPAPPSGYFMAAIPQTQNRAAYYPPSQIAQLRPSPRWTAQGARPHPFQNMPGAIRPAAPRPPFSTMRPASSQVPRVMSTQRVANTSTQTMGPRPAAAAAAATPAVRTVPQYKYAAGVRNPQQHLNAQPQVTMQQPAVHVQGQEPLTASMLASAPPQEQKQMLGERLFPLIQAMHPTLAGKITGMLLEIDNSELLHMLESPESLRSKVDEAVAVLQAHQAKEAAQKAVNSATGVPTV
Beta Lactamase, sequence (Q932Y6 whole entry, the tested form may be a part): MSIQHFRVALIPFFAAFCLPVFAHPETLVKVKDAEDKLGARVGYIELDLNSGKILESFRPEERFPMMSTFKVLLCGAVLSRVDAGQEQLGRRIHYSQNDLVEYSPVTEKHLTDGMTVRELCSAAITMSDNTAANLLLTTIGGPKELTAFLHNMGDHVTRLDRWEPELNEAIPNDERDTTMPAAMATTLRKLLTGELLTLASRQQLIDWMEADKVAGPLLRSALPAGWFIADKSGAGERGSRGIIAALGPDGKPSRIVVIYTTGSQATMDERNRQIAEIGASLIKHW
Kappa-type opioid receptor, sequence (P41145 whole entry, the tested form may be a part): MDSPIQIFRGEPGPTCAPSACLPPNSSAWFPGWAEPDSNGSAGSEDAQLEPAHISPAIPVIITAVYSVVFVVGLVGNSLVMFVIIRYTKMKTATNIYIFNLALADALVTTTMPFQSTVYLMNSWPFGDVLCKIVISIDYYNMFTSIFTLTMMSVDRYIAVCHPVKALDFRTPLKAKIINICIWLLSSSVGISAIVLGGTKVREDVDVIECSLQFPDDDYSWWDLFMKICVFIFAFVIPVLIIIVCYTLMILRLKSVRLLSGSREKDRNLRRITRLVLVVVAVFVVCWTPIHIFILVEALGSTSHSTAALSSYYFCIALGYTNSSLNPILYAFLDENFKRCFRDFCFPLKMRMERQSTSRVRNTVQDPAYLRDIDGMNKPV

For the compound `O=S(=O)(O)c1cc(O)c2cc(Nc3ccccc3)ccc2c1`, the IC50 is > 66 µM (inactive) in experiment [1], > 66 µM (inactive) in [2] and > 66.6 µM (inactive) in experiment [3]. In addition, the concentration at half-maximal activity (AC50) in experiment [4] is 1.8 µM (active); in [5], 30.2 µM (active).
Turning to `O=[N+]([O-])c1c(Nc2ccccc2O)cc(Cl)c2nonc12`, the EC50 in experiment [6] was 1.79 µM (active). Besides, the IC50 in experiment [7] is 2.89 µM (active); in experiment [8], 1.36 µM (active); in experiment [10], 18.4 µM (inactive); in experiment [11], 14.6 µM (active). Moreover, the AC50 in [9] was 2.19 µM (active).

Source of the values: ChEMBL document CHEMBL1201862, “PubChem BioAssay data set” (2004).
